In brackets after ≈: the same amount, converted by molar mass. Activity calls are given as the source filed them. The rule behind the calls is not given here.
Legend:
Streptococcus pneumoniae [1] = experiment: Antimicrobial activity against Streptococcus pneumoniae spain 23F-1; assay type: functional
Streptococcus sp. [2] = experiment: Antimicrobial activity against Streptococcus sp.11923/96; assay type: functional
Streptococcus sp. [3] = experiment: Antimicrobial activity against Streptococcus sp. 782/96; assay type: functional
Streptococcus pneumoniae [4] = experiment: Induction of autolysin LytA in Streptococcus pneumoniae M32 assessed as log reduction in bacterial count at 25 uM after 15 mins; assay type: functional
Streptococcus pneumoniae [5] = experiment: Antimicrobial activity against Streptococcus pneumoniae ATCC 6303; assay type: functional
Streptococcus oralis = experiment: Antimicrobial activity against Streptococcus oralis NCTC 11427
Streptococcus agalactiae = experiment: Antimicrobial activity against Streptococcus agalactiae CECT 183; assay type: functional
Streptococcus pneumoniae [6] = experiment: Antimicrobial activity against Streptococcus pneumoniae M32; assay type: functional
Streptococcus pneumoniae [7] = experiment: Antimicrobial activity against Streptococcus pneumoniae R6; assay type: functional
Enterococcus faecalis = experiment: Antimicrobial activity against Enterococcus faecalis; assay type: functional
[8] = system: Streptococcus pseudopneumoniae; experiment: Bactericidal effect on Streptococcus pseudopneumoniae at 10 uM; assay type: functional
Streptococcus pneumoniae [9] = experiment: Induction of autolysin LytA Streptococcus pneumoniae M32 assessed as log reduction in bacterial count at 25 uM after 3 hrs; assay type: functional
Streptococcus sp. [10] = experiment: Bactericidal effect on Streptococcus sp.11923/96 at 10 uM; assay type: functional, organism-based
Streptococcus pyogenes = experiment: Antimicrobial activity against Streptococcus pyogens CECT 985
Streptococcus mitis = experiment: Antimicrobial activity against Streptococcus mitis NCTC 12161; assay type: functional
Streptococcus sp. [11] = experiment: Bactericidal effect on Streptococcus sp. 782/96 at 10 uM; assay type: functional, organism-based
Streptococcus pneumoniae [12] = experiment: Lytic effect on Streptococcus pneumoniae M32 in presence of 10 ug/ml LytA amidase; assay type: functional, organism-based
Streptococcus mutans = experiment: Antimicrobial activity against Streptococcus mutans CECT 479; assay type: functional
Streptococcus pneumoniae [13] = experiment: Antimicrobial activity against Streptococcus pneumoniae 8249; assay type: functional

O=C(N[C@H](CO)[C@H](O)c1ccc([N+](=O)[O-])cc1)C(Cl)Cl [CHLORAMPHENICOL]
MIC (Streptococcus pneumoniae [1]): > 8 mg/L

CC[C@H]1OC(=O)[C@H](C)[C@@H](O[C@H]2C[C@@](C)(OC)[C@@H](O)[C@H](C)O2)[C@H](C)[C@@H](O[C@@H]2O[C@H](C)C[C@H](N(C)C)[C@H]2O)[C@](C)(O)C[C@@H](C)C(=O)[C@H](C)[C@@H](O)[C@]1(C)O [ERYTHROMYCIN]
MIC (Streptococcus sp. [2]): 4 mg/L (≈ 5.45 µM)
MIC (Streptococcus sp. [3]): > 128 mg/L

CCCCCCCCCCCCCCCCOP(=O)([O-])OCC[N+](C)(C)C [MILTEFOSINE]
Activity (Streptococcus pneumoniae [4]): 2
MIC (Streptococcus pneumoniae [5]): 6.25 µM (≈ 2.55 µg/mL)
MIC (Streptococcus oralis): 10 µM (≈ 4.08 µg/mL)
MIC (Streptococcus agalactiae): 20 µM (≈ 8.15 µg/mL)
MIC (Streptococcus pneumoniae [6]): 5 µM (≈ 2.04 µg/mL)
MIC (Streptococcus pneumoniae [7]): 5 µM (≈ 2.04 µg/mL)
MIC (Enterococcus faecalis): 20 µM (≈ 8.15 µg/mL)
Activity [8]: Active
Activity (Streptococcus pneumoniae [9]): 4
Activity (Streptococcus sp. [10]): Active
MIC (Streptococcus pneumoniae [1]): 6.25 µM
MIC (Streptococcus pyogenes): 10 µM (≈ 4.08 µg/mL)
MIC (Streptococcus mitis): 10 µM (≈ 4.08 µg/mL)
Activity (Streptococcus sp. [11]): Active
Activity (Streptococcus pneumoniae [12]): Active
MIC (Streptococcus mutans): 20 µM (≈ 8.15 µg/mL)
MIC (Streptococcus pneumoniae [13]): 6.25 µM (≈ 2.55 µg/mL)

CN(C)[C@@H]1C(O)=C(C(N)=O)C(=O)[C@@]2(O)C(O)=C3C(=O)c4c(O)cccc4[C@@](C)(O)[C@H]3C[C@@H]12 [TETRACYCLINE]
MIC (Streptococcus sp. [2]): 0.5 mg/L (≈ 1.13 µM)
MIC (Streptococcus sp. [3]): 128 mg/L (≈ 288 µM)
MIC (Streptococcus pneumoniae [1]): 8 mg/L

Reference: ChEMBL document CHEMBL1145500, “In vitro bactericidal activity of the antiprotozoal drug miltefosine against Streptococcus pneumoniae and other pathogenic streptococci” (2007)
